Laboratory results: patent US5965701A, “Kappa receptor opioid peptides” (priority 1997, dated 1999)
Several values for one entry are separate records, joined by “and”; a condition that tells them apart may be missing. Equal entries are not always repeated. Where a SMILES comes first, the peptide text is derived from it. [ ]: non-standard residue; d: D form. The star is where a group is joined. dPhe(3,4-Cl2) = N[C@H](Cc1ccc(Cl)c(Cl)c1)C(=O)O; d2Nal = N[C@H](Cc1ccc2ccccc2c1)C(=O)O; d2Thi = N[C@H](Cc1cccs1)C(=O)O; NH(4-picolyl) = c1cc(CN*)ccn1; N(CH2CH2)2NH = C1CN(*)CCN1; dNle = CCCC[C@@H](N)C(=O)O; Morpholide = C1CN(*)CCO1; NEt2 = CCN(CC)*; NHcPr = C1CC1N*; NHPr = CCCN*

Key:
mouse = settings: for TF-ED50: i.v., 52° C. water, central effects; for BPI (Brain Penetration Index): mouse, in vivo, iv
conscious male ICR mice = test: Mouse acetic acid writhing test (WT); format: in vivo; settings: for WT-ED50: i.v., 5 minutes before acetic acid i.p., writhes over 15 minutes; for % Antinociception 1 hr / % Antinociception 2 hr / % Antinociception 3 hr: submaximal effective dose i.v., percentage of the activity found at -5 min; for % Antinociception 1 hr: 60 min pretreatment; for % Antinociception 2 hr: 120 min pretreatment; for % Antinociception 3 hr: 180 min pretreatment
Protocol: Selected peptides that are identified in Tables A-G have been further specifically subjected to in vivo testing for determination of duration of action of their opioid properties, and the results are reported in Table H hereinafter. The peptide numbers correspond to those in the earlier tables and the figures with regard to μ/K ratio are simply carried over for reference purposes. The in vivo testing is carried out using a mouse writhing test (WT) that is well-suited for determining the length of duration of antinociceptive biological activity. This test is described in detail in an article by G. A. Bentley et al., Br. J. Phamac., 73:325-332, 1981, and it employs conscious male ICR mice which are purchased from Harlan and which weigh between 20 and 30 grams. The mice are fasted for 12 to 16 hours prior to beginning the test. The nociceptive behavior, i.e. writhing, to be monitored is induced by the intraperitoneal (i.p.) administration of dilute acetic acid. 10 milliliters of 0.6% aqueous acetic acid is used per kg of body weight. Writhing is scored during the 15 minutes following acetic acid administration. In a first step, compounds are tested at 3 to 4 increasing doses, given by intravenous route, and at one unique pretreatment time (-5 minutes before acetic acid injection). […] In a second step, this submaximal effective dose for each specific peptide is administered at various pretreatment times (i.e. -5 minutes, -60 minutes, -120 minutes and -180 minutes) prior to the administration of the acetic acid in order to determine the duration of action. Throughout the test, a control group of mice are used which are administered only the vehicle without the candidate peptide. The number of writhes are counted over a 15-minute period, starting from the time of acetic acid injection, and bioactivity, i.e. antinociception, is expressed as a percentage, and is calculated as follows:
100×(writhes in control group-writhes in treated group)/writhes in
Values higher than 100% indicate greater antinociception than at the beginning of the experiment. It is felt that the opioid peptide should be effective to reduce writhing by at least about 25% at a time of 1 hour to be considered to have long duration of in vivo action.
In addition to using this test to determine duration of antinociceptive activity, it is also used to measure the in vivo biopotency (short term) of the peptide. This value is given in the table under the heading WT-ED50 in milligrams per kg of body weight. The value is a measure of the dosage necessary to reduce the number of writhes in the mouse being tested by 50% (as compared to a control mouse) over a period of 15 minutes.

[1] = target: T1, cloned human kappa (hKOR) receptor (Homo sapiens, UniProt P41145); test: biochemical; format: binding; settings: for μ/κ Ratio (binding affinity for KOR versus MOR): Ki MOR / Ki KOR; for Ki: read-out: Ki KOR
T1 construct: expressed in transfected cells; host or cells: HN9.10 (mouse hippocampal neuroblastoma), stably transfected

[2] = target: T2, cloned human mu opioid (hMOR) receptor (Homo sapiens, UniProt P35372); test: Competition binding at cloned hMOR, displacement of 3H-DAMGO; settings: hMOR stably expressed in HN.9.10 cells, read-out: Ki MOR
T2 construct: expressed in transfected cells; host or cells: HN9.10 (mouse hippocampal neuroblastoma), stably transfected
T2 sequence (P35372 whole entry): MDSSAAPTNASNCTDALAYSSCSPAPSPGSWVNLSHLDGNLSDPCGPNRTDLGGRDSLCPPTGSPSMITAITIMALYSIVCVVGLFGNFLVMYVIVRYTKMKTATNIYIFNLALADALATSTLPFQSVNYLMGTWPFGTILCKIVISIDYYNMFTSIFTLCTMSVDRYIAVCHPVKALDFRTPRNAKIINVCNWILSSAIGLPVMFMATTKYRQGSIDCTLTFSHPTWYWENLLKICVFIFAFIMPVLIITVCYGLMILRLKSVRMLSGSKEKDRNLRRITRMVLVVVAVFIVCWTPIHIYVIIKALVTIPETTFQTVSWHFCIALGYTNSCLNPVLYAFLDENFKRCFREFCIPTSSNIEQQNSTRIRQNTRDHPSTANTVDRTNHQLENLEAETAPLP

T1 sequence (P41145 whole entry): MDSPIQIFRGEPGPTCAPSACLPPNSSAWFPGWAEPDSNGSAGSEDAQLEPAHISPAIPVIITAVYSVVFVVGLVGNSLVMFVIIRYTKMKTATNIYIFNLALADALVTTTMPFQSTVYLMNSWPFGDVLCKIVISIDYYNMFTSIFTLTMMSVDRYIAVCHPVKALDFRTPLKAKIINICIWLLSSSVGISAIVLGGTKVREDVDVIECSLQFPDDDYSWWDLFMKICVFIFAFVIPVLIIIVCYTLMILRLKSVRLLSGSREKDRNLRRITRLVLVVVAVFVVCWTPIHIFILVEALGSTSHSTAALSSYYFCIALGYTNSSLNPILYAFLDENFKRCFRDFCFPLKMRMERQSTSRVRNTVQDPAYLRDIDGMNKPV

SMILES | TF-ED50 (mouse) [mg/kg] | BPI (Brain Penetration Index) (mouse) | WT-ED50 (conscious male ICR mice) | WT-ED50 (conscious male ICR mice; listed as Peptide No. 1) | antinociception after 3 hours (conscious male ICR mice; mouse acetic acid writhing assay, Example 1) | duration of antinociceptive bioactivity (duration of action) (conscious male ICR mice; result in words) | % Antinociception 1 hr (conscious male ICR mice) [%] | % Antinociception 2 hr (conscious male ICR mice) [%] | % Antinociception 3 hr (conscious male ICR mice) [%] | μ/κ Ratio (binding affinity for KOR versus MOR) [1] | μ/κ Ratio (binding affinity for KOR versus MOR) ([1]; listed as Peptide No. 1) | Ki [1] [nM] | Ki [2] [nM]
CCCC[C@@H](NC(=O)[C@@H](Cc1ccccc1)NC(=O)[C@H](N)Cc1ccccc1)C(=O)N[C@H](CCCNC(=N)N)C(=O)NCC [Peptide 1, H-D-Phe-D-Phe-D-Nle-D-Arg-NHEt] (H-[dF][dF][dNle][dR]-NHEt) | 9.7 | 108 | 0.09 mg/kg | about 0.09 mg/kg | over 50% | very long duration of action | 83.9 | 75.5 | 61.3 | 38,000 | about 38,000 | ~0.05 | 1890 ± 990
CCCC[C@@H](NC(=O)[C@@H](Cc1ccccc1)NC(=O)[C@H](N)Cc1ccccc1)C(=O)N[C@H](CCCNC(=N)N)C(=O)NCCC [Peptide 3, H-D-Phe-D-Phe-D-Nle-D-Arg-NHPr] (H-[dF][dF][dNle][dR]-NHPr) | 13.82 | 177 | 0.078 mg/kg |  |  |  | 29 | 30.7 |  | 18,000 |  | 0.09 | 1640
CCCC[C@@H](NC(=O)[C@@H](Cc1ccccc1)NC(=O)[C@H](N)Cc1ccccc1)C(=O)N[C@H](CCCNC(=N)N)C(=O)NC1CC1 [Peptide 5, H-D-Phe-D-Phe-D-Nle-D-Arg-NH(Cyp)] (H-[dF][dF][dNle][dR]-NHcPr) | 4.4 | 110 | 0.04 mg/kg |  |  |  | 66 | 34.5 |  | 20,000 |  | 0.18 | 3520
CCCC[C@@H](NC(=O)[C@@H](Cc1ccccc1)NC(=O)[C@H](N)Cc1ccccc1)C(=O)N[C@H](CCCNC(=N)N)C(=O)N1CCOCC1 [Peptide 6, H-D-Phe-D-Phe-D-Nle-D-Arg-Mor] (H-[dF][dF][dNle][dR]-Morpholide) | 6.4 | 457 | 0.014 mg/kg |  |  |  | 105.7 | 52.7 |  | 42,000 |  | 0.06 | 2510
CCCC[C@@H](NC(=O)[C@@H](Cc1ccccc1)NC(=O)[C@H](N)Cc1ccccc1)C(=O)N[C@H](CCCNC(=N)N)C(=O)N(CC)CC [Peptide 7, H-D-Phe-D-Phe-D-Nle-D-Arg-N(Et2)] (H-[dF][dF][dNle][dR]-NEt2) | 3.1 | 155 | 0.02 mg/kg and 0.020 mg/kg |  |  |  | 67.5 | 36.8 |  | 17,000 |  | 0.11 | 1900
CCCC[C@@H](NC(=O)[C@@H](Cc1ccccc1)NC(=O)[C@H](N)Cc1ccccc1)C(=O)N[C@H](CCCNC(=N)N)C(=O)NCc1ccncc1 [Peptide 8, H-D-Phe-D-Phe-D-Nle-D-Arg-NH(4-Pic)] (H-[dF][dF][dNle][dR]-{NH(4-picolyl)}) | 9.84 | 984 | 0.01 mg/kg |  |  |  | 66.9 | 45.1 |  | 26,000 |  | 0.14 | 3640
CCCC[C@@H](NC(=O)[C@@H](Cc1ccccc1)NC(=O)[C@H](N)Cc1ccccc1)C(=O)N[C@H](CCCNC(=N)N)C(=O)N1CCNCC1 [Peptide 15, H-D-Phe-D-Phe-D-Nle-D-Arg-Ppz] (H-[dF][dF][dNle][dR]-{N(CH2CH2)2NH}) |  |  | 0.017 mg/kg |  |  |  |  |  |  | 57,000 |  | 0.16 | 9100
CCNC(=O)[C@@H](CCCN)NC(=O)[C@@H](CC(C)C)NC(=O)[C@@H](Cc1ccccc1)NC(=O)[C@H](N)Cc1ccccc1 [Peptide 56, H-D-Phe-D-Phe-D-Leu-D-Orn-NHEt] |  |  | 0.057 mg/kg and 0.06 mg/kg |  |  |  | 76.3 | 60.2 |  | 13,000 |  | 0.31 | 4150
CC(C)C[C@@H](NC(=O)[C@@H](Cc1ccccc1)NC(=O)[C@H](N)Cc1ccccc1)C(=O)N[C@H](CCCN)C(=O)N1CCOCC1 [Peptide 57, H-D-Phe-D-Phe-D-Leu-D-Onn-Mor] | 5.6 | 215 | 0.026 mg/kg |  |  |  | 100 | 67.2 | 58.2 | 28,000 |  | 0.19 | 5260
CCCC[C@@H](NC(=O)[C@@H](Cc1ccccc1)NC(=O)[C@H](N)Cc1ccccc1)C(=O)N[C@H](Cc1ccc(CNC(=N)N)cc1)C(=O)N1CCOCC1 [Peptide 58, H-D-Phe-D-Phe-D-Nle-D-Gmf-Mor] |  |  | 0.040 mg/kg |  |  |  |  |  |  | 6,500 |  | 0.46 | 3010
CC(C)C[C@@H](NC(=O)[C@@H](Cc1ccc(Cl)c(Cl)c1)NC(=O)[C@H](N)Cc1cccs1)C(=O)N[C@H](CCCNC(=N)N)C(=O)NCc1ccncc1 [Peptide 60, H-D-Ala(2Thi)-D-3,4Cpa-D-Leu-D-Arg-NH(4Pic)] (H-[d2Thi][dPhe(3,4-Cl2)][dL][dR]-{NH(4-picolyl)}) |  |  | 0.083 mg/kg |  |  |  | 83.8 | 35.5 |  | 1,900 |  | 0.4 | 769
CC(C)C[C@@H](NC(=O)[C@@H](Cc1ccc2ccccc2c1)NC(=O)[C@H](N)Cc1cccs1)C(=O)N[C@H](CCCNC(=N)N)C(=O)N1CCOCC1 [Peptide 63, H-D-Ala(2Thi)-D-2Nal-D-Leu-D-Arg-Mor] (H-[d2Thi][d2Nal][dL][dR]-Morpholide) |  |  | 0.04 mg/kg |  |  |  | 51.8 | 36.1 |  | 16,000 |  | 0.2 | 3170
